≈ marks a conversion by molar mass, not a printed value. Where “and” joins values, the source holds several entries; their conditions need not be identical. Identical values can stand only once. Entries after “also recorded” stand apart in the source; their conditions may differ. Like-named read-outs stand apart in the source and are kept apart here.
Key:
[1] = Thermal and chemical stability; type: physicochemical
From the text: We also examined the thermal and chemical stability of the synthesized 2-oxabicyclo[2.2.2]octanes. As representative examples, we selected three molecules: isomeric acids 47, 54, and amine 52. All 2-oxabicyclo[2.2.2]octanes were crystalline solids that were stable in air. We stored them in stock at room temperature in closed vials and observed no changes according to ^1H NMR after one year. […] Treatment of the selected 2-oxabicyclo[2.2.2]octanes with aq. 1 M HCl, or aq.

[2] = Determination of pKa values (potentiometric titration); type: physicochemical; details: methanol-water (1:4) solution of NaCl; titration method; potentiometric acid-base titration at 25 °C in methanol-water (1:4), 150 mM NaCl; read-out: pKa (exp.)
Experimental: Data is obtained by the titration method. Para-methyl benzoic acid (83) is used as a reference. TEXT PRINTED IN THE PICTURE: 83: pKa (exp.): 4.5 ± 0.1 | 84: pKa (exp.): 5.6 ± 0.1 | 47: pKa (exp.): 4.4 ± 0.1 | 54: pKa (exp.): 4.1 ± 0.1 […]
Determination of pKa values
The tendency of a compound to donate proton is measured as its acid ionization constant (dissociation constant), or Ka. A more practical scale of representing acidity is pKa which is the negative logarithm of the Ka (pKa = -log Ka). pKa of a test article is determined by pH-metric method based on potentiometric acid-base titration at 25 °C. The test compounds are dissolved in acidified methanol-water (1:4) solution of NaCl (150 mM, pH 2) and slowly titrated with 0.3 M sodium hydroxide methanol-water (1:4) solution, while recording pH of the solution as a function of NaOH volume used during the titration (construction of the titration curve). Titration of acidified NaCl solution in absence of any compounds is used for blank plotting.5-8 Buffering capacity is calculated in each point of titration curve as the ratio of the NaOH flow (constant) to the pH rise velocity. The pKa value is determined from resulting plot of buffering capacity versus pH as the maximum of buffering capacity. pH-metric method allows to measure pKas in the range of approximately between 2 and 12. […]
meter, pHi®510 (Beckman Coulter, Canada; Cat# A58734). Data analysis was done using GraphPad […]
Sodium hydroxide (Enamine, Ukraine; CAS # 1310-73-2)
Sodium chloride BioXtra, ≥99.5% (AT) (Sigma-Aldrich, USA; Cat # S7653)
Hydrochloric acid (Enamine, Ukraine; CAS # 7647-01-0)
Disposable pipette tips (Eppendorf, German; Matrix and Finntip, Thermo, USA) Polypropylene graduated conical tubes, 50 mL (Kartell, Italy; Cat. # 84002) Polypropylene syringe (10 mL) with tubing (Hemoplast, Ukraine) […]
pH-meter, pHi®510 (Beckman Coulter, Canada; Cat# A58734)
Multichannel Electronic Pipettes 5-50 µL, 10-1000 µL (Thermo, USA)
Magnetic stirrer standard unit (IKA, USA)
Syringe Driver Mdl 100 (KDScientific, USA)

human liver microsomes [3] = details: both, 2 µM, pH 7.4
physchem = details: pH 7.4, logD (7.4): experimental distribution coefficient in n-octanol/phosphate-buffered saline
[4] = Kinetic solubility in phosphate-buffered saline, pH 7.4; details: 25 °C, pH 7.4, aqueous buffer, kinetic from dmso stock
human liver microsomes [5] = test: Metabolic stability in human liver microsomes; details: human liver microsomes
[6] = Metabolic stability in human liver microsomes; details: both, human, liver microsomes (pooled)
ABL1 kinase = ABL1 kinase (Homo sapiens, UniProt P00519); details: for Luminescence, Raw Data (LUM): ADP-Glo
Sequence of ABL1 kinase (P00519 whole entry): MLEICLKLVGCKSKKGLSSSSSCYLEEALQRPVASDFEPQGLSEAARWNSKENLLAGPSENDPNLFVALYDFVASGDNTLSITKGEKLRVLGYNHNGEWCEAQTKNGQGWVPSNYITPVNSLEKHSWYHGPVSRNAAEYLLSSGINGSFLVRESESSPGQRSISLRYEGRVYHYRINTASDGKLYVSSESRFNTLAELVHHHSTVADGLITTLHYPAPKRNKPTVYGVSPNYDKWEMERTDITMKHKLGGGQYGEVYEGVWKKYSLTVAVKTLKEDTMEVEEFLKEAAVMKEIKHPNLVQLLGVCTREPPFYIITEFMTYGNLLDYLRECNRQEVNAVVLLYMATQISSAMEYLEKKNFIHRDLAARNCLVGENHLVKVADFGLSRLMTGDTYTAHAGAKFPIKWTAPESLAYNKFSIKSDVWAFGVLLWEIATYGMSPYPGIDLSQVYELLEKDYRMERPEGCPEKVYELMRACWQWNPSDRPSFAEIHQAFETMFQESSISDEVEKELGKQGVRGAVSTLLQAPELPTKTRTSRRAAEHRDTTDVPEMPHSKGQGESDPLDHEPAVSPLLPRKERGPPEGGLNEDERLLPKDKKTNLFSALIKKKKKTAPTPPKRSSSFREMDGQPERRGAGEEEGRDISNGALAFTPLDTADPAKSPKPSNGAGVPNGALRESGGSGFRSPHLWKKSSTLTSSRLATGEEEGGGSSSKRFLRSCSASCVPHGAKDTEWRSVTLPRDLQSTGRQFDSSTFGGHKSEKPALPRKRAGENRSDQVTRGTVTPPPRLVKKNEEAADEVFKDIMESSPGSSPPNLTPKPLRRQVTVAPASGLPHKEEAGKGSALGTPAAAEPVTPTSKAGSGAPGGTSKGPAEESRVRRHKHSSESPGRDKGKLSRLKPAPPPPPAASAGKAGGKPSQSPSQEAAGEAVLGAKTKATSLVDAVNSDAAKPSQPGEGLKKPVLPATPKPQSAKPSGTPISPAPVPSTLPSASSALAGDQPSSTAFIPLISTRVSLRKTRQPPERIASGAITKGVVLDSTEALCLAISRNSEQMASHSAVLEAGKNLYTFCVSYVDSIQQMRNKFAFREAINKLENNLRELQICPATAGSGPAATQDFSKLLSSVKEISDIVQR

SMILES: CC12CCC(C(=O)O)(CC1)OC2 [Compound 54]
- chemical stability in acid ([1]; aq. 1 M HCl, room temperature, 1 h): no decomposition
- chemical stability in base ([1]; aq. 1 M NaOH, room temperature, 1 h): no decomposition
- thermal stability ([1]; heating at 100 °C for five minutes): remained stable
- stability on storage ([1]; in air, room temperature, closed vials, one year, 1H NMR): no changes
- pKa [2]: 4.1

SMILES: CC12CCC(C(=O)O)(CC1)CC2 [Compound 84, reference compound]
- pKa [2]: 5.6

SMILES: O=C(O)Cc1ccccc1Nc1c(Cl)cccc1Cl [Diclofenac]
- kel (elimination constant) (human liver microsomes [3]): 0.119 min⁻¹
- % Remaining, Mean of 2 (human liver microsomes [3]; microsomes, 7 min): 49%
- % Remaining without cofactor, Mean of 2 (human liver microsomes [3]; microsomes, 40 min): 91%

SMILES: Cc1ccc(NC(=O)C23CCC(CN4CCN(C)CC4)(CC2)OC3)cc1Nc1nccc(-c2cccnc2)n1 [Compound 85]
- logD (physchem): 1.8
- solubility kinetic at 2 h [4]: 389 µM (≈ 205 µg/mL)
- CLint (human liver microsomes [5]): 19
- t1/2: half-time of a metabolic decomposition (human liver microsomes [5]; 2 μM compound, NADPH, 37 °C): 1.45 h
- k el at 2 µM ([6]; pH 7.4): 0.000133 s⁻¹
- microsomal CLint at 2 µM ([6]; pH 7.4): 19 µL/min/mg
- remaining at 40 min, 2 µM ([6]; pH 7.4, % Remaining without cofactor, Mean of 2, human liver microsomes, NADPH-cofactor system substituted with phosphate buffer): 118%
- remaining at 7 min, 2 µM ([6]; pH 7.4, % Remaining, Mean of 2, human liver microsomes with NADPH, 7 min): 101%
- remaining at 0.25 h, 2 µM ([6]; pH 7.4, % Remaining, Mean of 2, human liver microsomes with NADPH, 15 min): 98%
- remaining at 25 min, 2 µM ([6]; pH 7.4, % Remaining, Mean of 2, human liver microsomes with NADPH, 25 min): 90%
- remaining at 40 min, 2 µM ([6]; pH 7.4, % Remaining, Mean of 2, human liver microsomes with NADPH): 73%
- half-life at 2 µM ([6]; pH 7.4, t1/2: half-time of a metabolic decomposition, human liver microsomes, 2 μM compound, NADPH, 37 °C): 1.45 h
- inhibitory effect on the catalytic activity of ABL1 kinase (in words) (ABL1 kinase; ADP-Glo Kinase Assay, 12 concentration points): did not observe any significant inhibitory effect; also recorded: inactive
- Luminescence, Raw Data (LUM) (ABL1 kinase; 1st run, plate ABL1_CpdsTitr_Read1, single wells, compound 15 nM): 1058 and 1113 and 1791 and 1922
- Luminescence, Raw Data (LUM) (ABL1 kinase; 1st run, plate ABL1_CpdsTitr_Read1, single wells, compound 29 nM): 1154 and 1300 and 1938 and 1968
- Luminescence, Raw Data (LUM) (ABL1 kinase; 1st run, plate ABL1_CpdsTitr_Read1, single wells, compound 59 nM): 1819 and 1993 and 1840 and 1873
- Luminescence, Raw Data (LUM) (ABL1 kinase; 1st run, plate ABL1_CpdsTitr_Read1, single wells, compound 117 nM): 2012 and 2091 and 2063 and 1940
- Luminescence, Raw Data (LUM) (ABL1 kinase; 1st run, plate ABL1_CpdsTitr_Read1, single wells, compound 234 nM): 1243 and 1296 and 1230 and 1333
- Luminescence, Raw Data (LUM) (ABL1 kinase; 1st run, plate ABL1_CpdsTitr_Read1, single wells, compound 469 nM): 1542 and 1412 and 1342 and 1622
- Luminescence, Raw Data (LUM) (ABL1 kinase; 1st run, plate ABL1_CpdsTitr_Read1, single wells, compound 938 nM): 1188 and 1448 and 1337 and 1335
- Luminescence, Raw Data (LUM) (ABL1 kinase; 1st run, plate ABL1_CpdsTitr_Read1, single wells, compound 1500 nM): 1805 and 977 and 1232 and 1070
- Luminescence, Raw Data (LUM) (ABL1 kinase; 1st run, plate ABL1_CpdsTitr_Read1, single wells, compound 1875 nM): 1156 and 1302 and 1289 and 1256
- Luminescence, Raw Data (LUM) (ABL1 kinase; 1st run, plate ABL1_CpdsTitr_Read1, single wells, compound 3000 nM): 1327 and 1543 and 1534 and 1388
- Luminescence, Raw Data (LUM) (ABL1 kinase; 1st run, plate ABL1_CpdsTitr_Read1, single wells, compound 3750 nM): 1381 and 1311 and 1134
- Luminescence, Raw Data (LUM) (ABL1 kinase; 1st run, plate ABL1_CpdsTitr_Read1, single wells, compound 7500 nM): 1269 and 1270 and 1321 and 1071
- Luminescence, Raw Data (LUM) (ABL1 kinase; 2nd run, plate ABL1_CpdsTitr2_Read1, single wells, compound 15 nM): 6198 and 6465 and 5917 and 6372
- Luminescence, Raw Data (LUM) (ABL1 kinase; 2nd run, plate ABL1_CpdsTitr2_Read1, single wells, compound 29 nM): 7090 and 6257 and 6692 and 6143
- Luminescence, Raw Data (LUM) (ABL1 kinase; 2nd run, plate ABL1_CpdsTitr2_Read1, single wells, compound 59 nM): 6364 and 6701 and 5655 and 6486
- Luminescence, Raw Data (LUM) (ABL1 kinase; 2nd run, plate ABL1_CpdsTitr2_Read1, single wells, compound 117 nM): 6190 and 6555 and 5494 and 6585
- Luminescence, Raw Data (LUM) (ABL1 kinase; 2nd run, plate ABL1_CpdsTitr2_Read1, single wells, compound 234 nM): 5219 and 5282 and 5107 and 4913
- Luminescence, Raw Data (LUM) (ABL1 kinase; 2nd run, plate ABL1_CpdsTitr2_Read1, single wells, compound 469 nM): 6324 and 5692 and 5791 and 5812
- Luminescence, Raw Data (LUM) (ABL1 kinase; 2nd run, plate ABL1_CpdsTitr2_Read1, single wells, compound 938 nM): 6138 and 6238 and 6011 and 5496
- Luminescence, Raw Data (LUM) (ABL1 kinase; 2nd run, plate ABL1_CpdsTitr2_Read1, single wells, compound 1500 nM): 5294 and 5538 and 5113 and 5062
- Luminescence, Raw Data (LUM) (ABL1 kinase; 2nd run, plate ABL1_CpdsTitr2_Read1, single wells, compound 1875 nM): 6881 and 6876 and 6366 and 6488
- Luminescence, Raw Data (LUM) (ABL1 kinase; 2nd run, plate ABL1_CpdsTitr2_Read1, single wells, compound 3000 nM): 4805 and 5280 and 4474 and 4682
- Luminescence, Raw Data (LUM) (ABL1 kinase; 2nd run, plate ABL1_CpdsTitr2_Read1, single wells, compound 3750 nM): 6509 and 5880 and 6068 and 5810
- Luminescence, Raw Data (LUM) (ABL1 kinase; 2nd run, plate ABL1_CpdsTitr2_Read1, single wells, compound 7500 nM): 6480 and 6469 and 6139 and 5760

From paper PMC10545790
